NCC(CC(=O)O)c1ccc(Cl)cc1 (configuration not stated)
solubility (mole fraction)
Conditions	273.15 K	278.15 K	283.15 K	288.15 K	293.15 K	298.15 K	303.15 K	308.15 K	313.15 K	318.15 K
in 1,4-dioxane	–	–	–	0.000519	0.000568	0.000632	0.000704	0.000788	0.000888	0.000996
in 2-butanone	0.000439	0.000475	0.000522	0.000579	0.000639	0.000703	0.000792	0.0009	0.00101	0.00112
in DMAc	0.0934	0.0945	0.0957	0.0969	0.0982	0.0995	0.101	0.102	0.104	0.105
in DMF	0.0998	0.101	0.102	0.104	0.106	0.108	0.11	0.112	0.115	0.117
in acetone	0.000228	0.000236	0.000246	0.000258	0.000273	0.000289	0.000305	0.000322	0.00034	0.000358
in ethanol	1.95e-05	2.23e-05	2.58e-05	3e-05	3.4e-05	3.85e-05	4.33e-05	4.86e-05	5.39e-05	5.86e-05
in ethyl acetate	0.00412	0.00419	0.00427	0.00436	0.00446	0.00456	0.00467	0.00476	0.00488	0.00499
in isopropanol	3.16e-05	3.67e-05	4.17e-05	4.74e-05	5.35e-05	5.99e-05	6.67e-05	7.41e-05	8.21e-05	9.04e-05
in methanol	0.000109	0.000116	0.000124	0.000133	0.000143	0.000153	0.000162	0.000173	0.000186	0.000198
in n-butanol	5.73e-05	6.12e-05	6.61e-05	7.11e-05	7.68e-05	8.34e-05	9.06e-05	9.72e-05	0.000104	0.000113
in n-propanol	2.57e-05	3.01e-05	3.47e-05	4.03e-05	4.61e-05	5.35e-05	6.1e-05	6.85e-05	7.63e-05	8.77e-05
in toluene	0.0054	0.00569	0.00601	0.00639	0.00673	0.00709	0.00749	0.0079	0.00831	0.00866
